Data as given in BindingDB's records for doi:10.1021/jm070453f (Gnf, 2007).

Tests used:
[1] = biological target: T1, Oxysterols receptor LXR-alpha (Homo sapiens, UniProt Q13133); experiment: Scintillation Proximity Assay
T1 sequence (Q13133 whole entry): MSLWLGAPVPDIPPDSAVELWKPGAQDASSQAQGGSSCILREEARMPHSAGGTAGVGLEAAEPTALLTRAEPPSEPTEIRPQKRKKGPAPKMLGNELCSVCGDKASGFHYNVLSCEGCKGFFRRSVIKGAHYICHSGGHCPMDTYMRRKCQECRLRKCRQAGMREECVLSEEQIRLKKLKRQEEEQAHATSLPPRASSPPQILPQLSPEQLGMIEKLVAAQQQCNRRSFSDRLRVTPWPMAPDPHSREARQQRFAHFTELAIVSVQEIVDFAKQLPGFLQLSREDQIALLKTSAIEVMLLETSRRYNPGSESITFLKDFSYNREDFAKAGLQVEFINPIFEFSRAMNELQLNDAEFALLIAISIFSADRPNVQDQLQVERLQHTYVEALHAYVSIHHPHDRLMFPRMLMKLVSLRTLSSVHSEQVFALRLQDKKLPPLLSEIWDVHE
Description: (§1) SPA assays were run in displacement mode using 30 nM [3H]-GW3965. Ligands were tested in 12-point dose-response curves starting at 20 uM. IC50 values were determined from dose-response and competition curves, which were generated by nonlinear regression analysis using GraphPad Prism.

[2] = biological target: T2, Oxysterols receptor LXR-beta (Homo sapiens, UniProt P55055); experiment: Scintillation Proximity Assay
T2 sequence (P55055 whole entry): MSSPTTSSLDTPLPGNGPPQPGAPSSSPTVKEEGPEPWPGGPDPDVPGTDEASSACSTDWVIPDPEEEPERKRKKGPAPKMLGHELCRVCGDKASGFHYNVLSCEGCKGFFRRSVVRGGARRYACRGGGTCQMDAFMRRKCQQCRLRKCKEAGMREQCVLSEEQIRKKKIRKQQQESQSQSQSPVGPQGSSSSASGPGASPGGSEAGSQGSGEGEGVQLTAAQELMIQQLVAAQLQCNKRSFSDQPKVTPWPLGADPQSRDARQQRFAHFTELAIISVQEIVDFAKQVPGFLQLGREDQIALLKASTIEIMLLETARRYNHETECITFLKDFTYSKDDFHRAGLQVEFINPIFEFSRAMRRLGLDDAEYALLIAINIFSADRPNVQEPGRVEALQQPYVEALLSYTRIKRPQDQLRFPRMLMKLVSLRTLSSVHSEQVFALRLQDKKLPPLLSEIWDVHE
Description: as §1

[3] = biological target: T2, Oxysterols receptor LXR-beta; experiment: Fluorescence-Resonance Energy Transfer Assay; conditions: pH 7.2; 37 °C
Description: (§2) FRET-based co-activator recruitment assay measures agonist activities in a 384-well plate format. Reaction mixture containing His-tagged hLXR, biotinylated SRC-1 peptide, Europiumlabeled anti-His antibody, and allophycocyaninlabeled streptavidin (Prozyme) was prepared. Ligands were tested in 12-point dose-response curves, and FRET was read on an AnalystGT (Molecular Devices).

[4] = biological target: T1, Oxysterols receptor LXR-alpha; experiment: Fluorescence-Resonance Energy Transfer Assay; conditions: pH 7.2; 37 °C
Description: as §2

COc1cccc(C2SC(c3ccc(Cl)cc3)=NN2C(=O)c2c(F)cc(F)cc2F)c1OC (racemic) [5-(4-chlorophenyl)-2-(2,3-dimethoxyphenyl)-3-[(2,4,6-trifluorophenyl)carbonyl]-2,3-dihydro-1,3,4-thiadiazole]
IC50 [1]: 9800 nM
IC50 [2]: 300 nM
EC50 [3]: 300 nM

O=C(O)Cc1cccc(OCCCN(Cc2cccc(C(F)(F)F)c2Cl)CC(c2ccccc2)c2ccccc2)c1 [2-{3-[3-({[2-chloro-3-(trifluoromethyl)phenyl]methyl}(2,2-diphenylethyl)amino)propoxy]phenyl}acetic acid]
IC50 [1]: 121 nM
IC50 [2]: 23 nM

COc1ncccc1C1SC(c2ccc(F)cc2)=NN1C(=O)c1c(F)cc(F)cc1F (centres undefined) [5-(4-fluorophenyl)-2-(2-methoxypyridin-3-yl)-3-[(2,4,6-trifluorophenyl)carbonyl]-2,3-dihydro-1,3,4-thiadiazole]
EC50 [4]: 400 nM
EC50 [3]: 210 nM

COc1cccc([C@H]2SC(c3ccc(Cl)cc3)=NN2C(=O)c2c(F)cc(F)cc2F)c1OC [(2R)-5-(4-chlorophenyl)-2-(2,3-dimethoxyphenyl)-3-[(2,4,6-trifluorophenyl)carbonyl]-2,3-dihydro-1,3,4-thiadiazole]
IC50 [1]: 5000 nM
IC50 [2]: 66 nM
